Legend:
Lactoperoxidase = Lactoperoxidase (Bos taurus, UniProt P80025); experiment: Lactoperoxidase (LPO) activity, spectrophotometric assay (ABTS); assay type: biochemical
Procedure: Lactoperoxidase is a member of the heme peroxidase family of enzymes that, together with a catalytic anion (such as I^−, derived from KI, present in the substrate), will catalyse the oxidation of H2O2, leading to hypojodite (IO^−). This hypojodite is a reactive oxygen species (ROS). To measure the enzymatic activity of LPO, a standard spectrophotometric assay is performed. In brief, H2O2 combined with 2,2′-azino-bis (3-ethylbenzothiazoline-6-sulfonzuur (ABTS) is catalysed by LPO so that the formation of a coloured compound is achieved that can in turn be measured by spectrophotometry. LPO was tested in 3 different concentrations, i.e., 50, 10 and 1 mg/ml. Each reaction mixture was tested in duplo. In the event LPO activity was evaluated in the presence of a potentiator candidate (=a molecule that might be able to augment the enzymatic activity of LPO), the latter was added in a low and high concentration ranging from 100 to 0.1 mg/ml. The blank consisted of the reaction mix in which H2O2 was absent. The absorbance was immediately measured with a plate reader (Spectramax ID3, Molecular Devices) every 12 seconds for 5 minutes at 20° C. For each combination evaluated, this test was repeated at least 2 times. Results were further analysed in MS Excel and expressed as U/g. Mean blank-corrected data±SD were plotted. Statistical significance compared to the combination without potentiator candidate (reference) was calculated using students' t-tests. Significance is achieved when the obtained p-value is lower than 0,05. Significance levels were defined as p<0.05=*; p<0.01=** and p<0.001=***.

[1] = tested on: Candida albicans ATCC®10231™; experiment: MBC determination, broth microdilution with CFU enumeration; assay type: cell-based; conditions: C. albicans; enhancer 0.01%
[2] = tested on: Staphylococcus aureus ATCC® 6538™; experiment: as above; assay type: cell-based; conditions: S. aureus
[3] = tested on: Candida albicans ATCC®10231™; experiment: Absolute microbial counts in function of enzyme solution concentration; assay type: cell-based; conditions: enhancer 0.01%; 0.005%-0.0000391% (v/v) GOX+LPO
Text: (§1) Absolute microbial counts in function of concentration of the antimicrobial agent tested are useful to monitor the bactericidal and fungicidal efficacy of that agent.
(§2) To determine the absolute number of live microorganisms in function of different enzyme solution concentrations tested, a classical broth microdilution assay combined with standard CFU enumeration techniques was used to determine the susceptibility of a series of microbes commonly detected in infected wounds, including (a) the Gram-positive bacterium Staphylococcus aureus ATCC® 6538™ (results shown below), (b) the Gram-negative bacterium Pseudomonas aeruginosa ATCC®9027™ (results shown below), (c) the yeast Candida albicans ATCC®10231™ (results shown below), and (d) the fungus Aspergillus niger ATCC®16404™ (results shown below). In brief, the broth microdilution assay was set up as previously described (see 2.1). After incubation, the absolute microbial count at the MIC and following higher concentrations (MICx2, MICx4, and so on) was determined using standard CFU enumeration techniques. For each combination evaluated, this test was repeated at least 5 times. The collected data were further analyzed in MS Excel and expressed as log CFU/ml. Mean results were plotted in function of enzyme solution concentration.

[4] = tested on: Staphylococcus aureus ATCC® 6538™; experiment: as above; assay type: cell-based; conditions: 0.005%-0.0000391% (v/v) GOX+LPO
Text: as §1, §2

With `C[C@@H](O)[C@H](N)C(=O)O` [Threonine, threonine] the “LPO activity compared to reference” value (Lactoperoxidase; enhancer 0.1 mg/ml) was “significant increase” and the “LPO activity compared to reference” value (Lactoperoxidase; enhancer 1 mg/ml) was “significant increase”.

For `NC(=O)C[C@H](N)C(=O)O` [Asparagine, asparagine], the “LPO activity compared to reference” value (Lactoperoxidase; enhancer 0.1 mg/ml) was “significant increase” and the “LPO activity compared to reference” value (Lactoperoxidase; enhancer 1 mg/ml) was “significant increase”.

For `CC[C@H](C)[C@H](N)C(=O)O` [Isoleucine, isoleucine], the “MBC: GOX+LPO enzyme solution needed” value [1] was 0.0000391 % (v/v), the “increase in MBC compared to reference” value [1] was 4 × and the “increase in MBC compared to the enhancing molecule guaiacol” value [1] was 2 ×. For the same compound, the “MBC: GOX+LPO enzyme solution needed” value ([2]; enhancer 0.00125%) was 0.0000391 % (v/v), the “increase in MBC compared to reference” value ([2]; enhancer 0.00125%) was 4 × and the “increase in MBC compared to the enhancing molecule guaiacol” value ([2]; enhancer 0.00125%) was 2 ×. The “MBC: GOX+LPO enzyme solution needed” value ([2]; enhancer 0.005%) was 0.0000391 % (v/v), the “increase in MBC compared to reference” value ([2]; enhancer 0.005%) was 4 × and the “increase in MBC compared to the enhancing molecule guaiacol” value ([2]; enhancer 0.005%) was 2 ×. The “reduction in absolute C. albicans counts compared to reference and guaiacol solution” value [3] was “stronger reduction”, the “reduction in absolute S. aureus counts compared to reference and guaiacol solution” value (from here on “reduction in absolute S. aureus counts”) ([4]; enhancer 0.00125%) was “stronger reduction” and the “reduction in absolute S. aureus counts” value ([4]; enhancer 0.005%) was “stronger reduction”.

In the case of `NC(=O)CC[C@H](N)C(=O)O` [Glutamine, glutamine], the “LPO activity compared to reference” value (Lactoperoxidase; enhancer 0.1 mg/ml) is reported as “significant increase”, the “LPO activity compared to reference” value (Lactoperoxidase; enhancer 1 mg/ml) is reported as “significant increase” and the “MBC: GOX+LPO enzyme solution needed” value ([2]; enhancer 0.1%) is reported as 0.0000391 % (v/v). The “increase in MBC compared to reference” value ([2]; enhancer 0.1%) was 4 ×, the “increase in MBC compared to the enhancing molecule guaiacol” value ([2]; enhancer 0.1%) was 2 × and the “reduction in absolute S. aureus counts” value ([4]; enhancer 0.1%) was “stronger reduction”.

In the case of `N[C@@H](CO)C(=O)O` [Serine, serine], the “LPO activity compared to reference” value (Lactoperoxidase; enhancer 100 mg/ml, reference = no potentiator candidate) is reported as “significant increase”, the “MBC: GOX+LPO enzyme solution needed” value [1] is reported as 0.0000391 % (v/v) and the “increase in MBC compared to reference” value [1] is reported as 4 ×. The “increase in MBC compared to the enhancing molecule guaiacol” value [1] was 2 ×, the “MBC: GOX+LPO enzyme solution needed” value ([2]; enhancer 0.0025%-0.00125%) was 0.0000391 % (v/v) and the “increase in MBC compared to reference” value ([2]; enhancer 0.0025%-0.00125%) was 4 ×. The “increase in MBC compared to the enhancing molecule guaiacol” value ([2]; enhancer 0.0025%-0.00125%) was 2 ×, the “MBC: GOX+LPO enzyme solution needed” value ([2]; enhancer 10%-0.005%) was 0.0000391 % (v/v) and the “increase in MBC compared to reference” value ([2]; enhancer 10%-0.005%) was 4 ×. The “increase in MBC compared to the enhancing molecule guaiacol” value ([2]; enhancer 10%-0.005%) was 2 ×, the “reduction in absolute C. albicans counts compared to reference and guaiacol solution” value [3] was “stronger reduction” and the “reduction in absolute S. aureus counts” value ([4]; enhancer 0.0025-0.00125%) was “stronger reduction”. The “reduction in absolute S. aureus counts” value ([4]; enhancer 10-0.005%) was “stronger reduction”.
